Measured values as given in US20260028354A1, “TETRAHYDRONAPHTHALENE DERIVATIVES AS ESTROGEN RECEPTOR DEGRADERS” (REGENT OF THE UNIVERSITY OF MICHIGAN, priority 2022, published 2026).

Assay: Western blot analysis for "B" compounds
Assay type: cell-based
Conditions: read-out: Traditional Western Degradation Potency (DC50)
In short: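 Target protein levels given as relative mean band intensity over GAPDH from scanned immunoblots. Lysates of treated cells in RIPA buffer, equalized by BCA, separated on 10% gels and transferred to PVDF.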

| SMILES | DC50 [nM] |
| --- | --- |
| O=C1CCC(N2C(=O)c3cc4c(cc3C2=O)CN(CC2CCN(CC3CN(c5ccc([C@@H]6c7ccc(O)cc7CC[C@@H]6c6ccccc6)cc5)C3)CC2)C4)C(=O)N1 (stereo partly drawn) [Compound B62, 2-(2,6-dioxopiperidin-3-yl)-6-((1-((1-(4-((1R,2S)-6-hydroxy-2-phenyl-1,2,3,4-tetrahydronaphthalen-1-yl)phenyl)azetidin-3-yl)methyl)piperidin-4-yl)methyl)-6,7-dihydropyrrolo[3,4-f]isoindole-1,3(2H,5H)-dione] | 10 to 100 |
| O=C1CCC(N2C(=O)c3cc4c(cc3C2=O)CN(CC2(F)CCN(CC3CN(c5ccc([C@@H]6c7ccc(O)cc7CC[C@@H]6c6ccccc6)cc5)C3)CC2)C4)C(=O)N1 (stereo partly drawn) [Compound B63, 2-(2,6-dioxopiperidin-3-yl)-6-((4-fluoro-1-((1-(4-((1R,2S)-6-hydroxy-2-phenyl-1,2,3,4-tetrahydronaphthalen-1-yl)phenyl)azetidin-3-yl)methyl)piperidin-4-yl)methyl)-6,7-dihydropyrrolo[3,4-f]isoindole-1,3(2H,5H)-dione] | > 100 |
| O=C1CCC(N2C(=O)c3cc4c(cc3C2=O)CN(C2CN(CC3CCN(c5ccc([C@@H]6c7ccc(O)cc7CC[C@@H]6c6ccccc6)cc5)CC3)C2)C4)C(=O)N1 (stereo partly drawn) [Compound B65, 2-(2,6-dioxopiperidin-3-yl)-6-(1-((1-(4-((1R,2S)-6-hydroxy-2-phenyl-1,2,3,4-tetrahydronaphthalen-1-yl)phenyl)piperidin-4-yl)methyl)azetidin-3-yl)-6,7-dihydropyrrolo[3,4-f]isoindole-1,3(2H,5H)-dione] | > 100 |
| O=C1CCC(N2C(=O)c3cc4c(cc3C2=O)CN(C2CCN(CC3CCN(c5ccc([C@@H]6c7ccc(O)cc7CC[C@@H]6c6ccc(F)cc6)cc5)CC3)CC2)C4)C(=O)N1 (stereo partly drawn) [Compound B66, 2-(2,6-dioxopiperidin-3-yl)-6-(1-((1-(4-((1R,2S)-2-(4-fluorophenyl)-6-hydroxy-1,2,3,4-tetrahydronaphthalen-1-yl)phenyl)piperidin-4-yl)methyl)piperidin-4-yl)-6,7-dihydropyrrolo[3,4-f]isoindole-1,3(2H,5H)-dione] | 10 to 100 |
| O=C1CCC(N2C(=O)c3cc4c(cc3C2=O)CN(CC2CN(CC3CCN(c5ccc([C@@H]6c7ccc(O)cc7CC[C@@H]6c6ccc(F)cc6)cc5)CC3)C2)C4)C(=O)N1 (stereo partly drawn) [Compound B67, 2-(2,6-dioxopiperidin-3-yl)-6-((1-((1-(4-((1R,2S)-2-(4-fluorophenyl)-6-hydroxy-1,2,3,4-tetrahydronaphthalen-1-yl)phenyl)piperidin-4-yl)methyl)azetidin-3-yl)methyl)-6,7-dihydropyrrolo[3,4-f]isoindole-1,3(2H,5H)-dione] | > 100 |
| O=C1CCC(N2Cc3cc4c(cc3C2=O)CN(C2CCN(CC3CCN(c5ccc([C@@H]6c7ccc(O)cc7CC[C@@H]6c6ccc(F)cc6)cc5)CC3)CC2)C4)C(=O)N1 (stereo partly drawn) [Compound B68, 3-(6-(1-((1-(4-((1R,2S)-2-(4-fluorophenyl)-6-hydroxy-1,2,3,4-tetrahydronaphthalen-1-yl)phenyl)piperidin-4-yl)methyl)piperidin-4-yl)-1-oxo-3,5,6,7-tetrahydropyrrolo[3,4-f]isoindol-2(1H)-yl)piperidine-2,6-dione] | < 10 |
| O=C1CCC(N2C(=O)c3cc4c(cc3C2=O)CN(C2CCN(CC3CN(c5ccc([C@@H]6c7ccc(O)cc7CC[C@@H]6c6ccc(F)cc6)cc5)C3)CC2)C4)C(=O)N1 (stereo partly drawn) [Compound B69, 2-(2,6-dioxopiperidin-3-yl)-6-(1-((1-(4-((1R,2S)-2-(4-fluorophenyl)-6-hydroxy-1,2,3,4-tetrahydronaphthalen-1-yl)phenyl)azetidin-3-yl)methyl)piperidin-4-yl)-6,7-dihydropyrrolo[3,4-f]isoindole-1,3(2H,5H)-dione] | > 100 |
| O=C1CCC(N2C(=O)c3cc4c(cc3C2=O)CN(CC2CCN(CC3CN(c5ccc([C@@H]6c7ccc(O)cc7CC[C@@H]6c6ccc(F)cc6)cc5)C3)CC2)C4)C(=O)N1 (stereo partly drawn) [Compound B70, 2-(2,6-dioxopiperidin-3-yl)-6-((1-((1-(4-((1R,2S)-2-(4-fluorophenyl)-6-hydroxy-1,2,3,4-tetrahydronaphthalen-1-yl)phenyl)azetidin-3-yl)methyl)piperidin-4-yl)methyl)-6,7-dihydropyrrolo[3,4-f]isoindole-1,3(2H,5H)-dione] | > 100 |
| O=C1CCC(N2C(=O)c3cc4c(cc3C2=O)CN(CC2CN(CC3CN(c5ccc([C@@H]6c7ccc(O)cc7CC[C@@H]6c6ccc(F)cc6)cc5)C3)C2)C4)C(=O)N1 (stereo partly drawn) [Compound B71, 2-(2,6-dioxopiperidin-3-yl)-6-((1-((1-(4-((1R,2S)-2-(4-fluorophenyl)-6-hydroxy-1,2,3,4-tetrahydronaphthalen-1-yl)phenyl)azetidin-3-yl)methyl)azetidin-3-yl)methyl)-6,7-dihydropyrrolo[3,4-f]isoindole-1,3(2H,5H)-dione] | > 100 |
| O=C1CCC(N2Cc3cc4c(cc3C2=O)CN(C2CCN(CC3CN(c5ccc([C@@H]6c7ccc(O)cc7CC[C@@H]6c6ccc(F)cc6)cc5)C3)CC2)C4)C(=O)N1 (stereo partly drawn) [Compound B72, 3-(6-(1-((1-(4-((1R,2S)-2-(4-fluorophenyl)-6-hydroxy-1,2,3,4-tetrahydronaphthalen-1-yl)phenyl)azetidin-3-yl)methyl)piperidin-4-yl)-1-oxo-3,5,6,7-tetrahydropyrrolo[3,4-f]isoindol-2(1H)-yl)pipcridinc-2,6-dionc] | 10 to 100 |
| O=C1CCC(N2C(=O)c3cc4c(cc3C2=O)CN(C2CCN(CC3(F)CN(c5ccc([C@@H]6c7ccc(O)cc7CC[C@@H]6c6ccccc6)cc5)C3)CC2)C4)C(=O)N1 (stereo partly drawn) [Compound B73, 2-(2,6-dioxopiperidin-3-yl)-6-(1-((3-fluoro-1-(4-((1R,2S)-6-hydroxy-2-phenyl-1,2,3,4-tetrahydronaphthalen-1-yl)phenyl)azetidin-3-yl)methyl)piperidin-4-yl)-6,7-dihydropyrrolo[3,4-f]isoindole-1,3(2H,5H)-dione] | > 100 |
| O=C1CCC(N2C(=O)c3cc4c(cc3C2=O)CN(CC2CCN(CC3(F)CN(c5ccc([C@@H]6c7ccc(O)cc7CC[C@@H]6c6ccccc6)cc5)C3)CC2)C4)C(=O)N1 (stereo partly drawn) [Compound B74, 2-(2,6-dioxopiperidin-3-yl)-6-((1-((3-fluoro-1-(4-((1R,2S)-6-hydroxy-2-phenyl-1,2,3,4-tetrahydronaphthalen-1-yl)phenyl)azetidin-3-yl)methyl)piperidin-4-yl)methyl)-6,7-dihydropyrrolo[3,4-f]isoindole-1,3(2H,5H)-dione] | > 100 |
| CN(C1CCC(CN2Cc3cc4c(cc3C2)C(=O)N(C2CCC(=O)NC2=O)C4=O)CC1)C1CCN(c2ccc([C@@H]3c4ccc(O)cc4CC[C@@H]3c3ccccc3)cc2)CC1 (stereo partly drawn) [Compound B75, 2-(2,6-dioxopiperidin-3-yl)-6-((4-((1-(4-((1R,2S)-6-hydroxy-2-phenyl-1,2,3,4-tetrahydronaphthalen-1-yl)phenyl)piperidin-4-yl)(methyl)amino)cyclohexyl)methyl)-6,7-dihydropyrrolo[3,4-f]isoindole-1,3(2H,5H)-dione] | > 100 |
| O=C1CCC(N2C(=O)c3cc4c(cc3C2=O)CN(C2CCC(CN3CCN(c5ccc([C@@H]6c7ccc(O)cc7CC[C@@H]6c6ccccc6)cc5)CC3)CC2)C4)C(=O)N1 (stereo partly drawn) [Compound B76, 2-(2,6-dioxopiperidin-3-yl)-6-(4-((4-(4-((1R,2S)-6-hydroxy-2-phenyl-1,2,3,4-tetrahydronaphthalen-1-yl)phenyl)piperazin-1-yl)methyl)cyclohexyl)-6,7-dihydropyrrolo[3,4-f]isoindole-1,3(2H,5H)-dione] | 10 to 100 |
| O=C1CCC(N2C(=O)c3cc4c(cc3C2=O)CN(C2CCC(C(=O)N3CCN(c5ccc([C@@H]6c7ccc(O)cc7CC[C@@H]6c6ccccc6)cc5)CC3)CC2)C4)C(=O)N1 (stereo partly drawn) [Compound B77, 2-(2,6-dioxopiperidin-3-yl)-6-(4-(4-(4-((1R,2S)-6-hydroxy-2-phenyl-1,2,3,4-tetrahydronaphthalen-1-yl)phenyl)piperazine-1-carbonyl)cyclohexyl)-6,7-dihydropyrrolo[3,4-f]isoindole-1,3(2H,5H)-dione] | > 100 |
| O=C1CCC(N2Cc3cc4c(cc3C2=O)CN(C2CCN(CC3CN(c5ccc([C@@H]6c7ccc(O)cc7CC[C@@H]6c6ccccc6)cc5)C3)CC2)C4)C(=O)N1 (stereo partly drawn) [Compound B78, 3-(6-(1-((1-(4-((1R,2S)-6-hydroxy-2-phenyl-1,2,3,4-tetrahydronaphthalen-1-yl)phenyl)azetidin-3-yl)methyl)piperidin-4-yl)-1-oxo-3,5,6,7-tetrahydropyrrolo[3,4-f]isoindol-2(1H)-yl)piperidine-2,6-dione] | > 100 |
| O=C1CCC(N2C(=O)c3cc4c(cc3C2=O)CN(C(=O)C2CCN(CC3CN(c5ccc([C@@H]6c7ccc(O)cc7CC[C@@H]6c6ccccc6)cc5)C3)CC2)C4)C(=O)N1 (stereo partly drawn) [Compound B79, 2-(2,6-dioxopiperidin-3-yl)-6-(1-((1-(4-((1R,2S)-6-hydroxy-2-phenyl-1,2,3,4-tetrahydronaphthalen-1-yl)phenyl)azetidin-3-yl)methyl)piperidine-4-carbonyl)-6,7-dihydropyrrolo[3,4-f]isoindole-1,3(2H,5H)-dione] | > 100 |
| O=C1CCC(N2Cc3cc4c(cc3C2=O)CN(C(=O)C2CCN(CC3CN(c5ccc([C@@H]6c7ccc(O)cc7CC[C@@H]6c6ccccc6)cc5)C3)CC2)C4)C(=O)N1 (stereo partly drawn) [Compound B80, 3-(6-(1-((1-(4-((1R,2S)-6-hydroxy-2-phenyl-1,2,3,4-tetrahydronaphthalen-1-yl)phenyl)azetidin-3-yl)methyl)piperidine-4-carbonyl)-1-oxo-3,5,6,7-tetrahydropyrrolo[3,4-f]isoindol-2(1H)-yl)piperidine-2,6-dione] | > 100 |
| O=C1CCC(N2C(=O)c3cc4c(cc3C2=O)CN(CC2CCC(N3CCN(c5ccc([C@@H]6c7ccc(O)cc7CC[C@@H]6c6ccccc6)cc5)CC3)CC2)C4)C(=O)N1 (stereo partly drawn) [Compound B83, 2-(2,6-dioxopiperidin-3-yl)-6-((4-(4-(4-((1R,2S)-6-hydroxy-2-phenyl-1,2,3,4-tetrahydronaphthalen-1-yl)phenyl)piperazin-1-yl)cyclohcxyl)mcthyl)-6,7-dihydropyrrolo[3,4-f]isoindolc-1,3(2H,5H)-dione] | 10 to 100 |
